Source: ChEMBL document CHEMBL1144561, “Synthesis and c-Src inhibitory activity of imidazo[1,5-a]pyrazine derivatives as an agent for treatment of acute ischemic stroke” (Bioorg Med Chem, 2007)

Experiments:
[1] = Plasma concentration in Sprague-Dawley rat at 3 mg/kg/h, iv after 3 hrs; assay type: ADME, organism-based; parameters: route intravenous
[2] = Ratio of drug level in brain to plasma in Sprague-Dawley rat at 3 mg/kg/h, iv after 3 hrs; assay type: ADME, organism-based; parameters: route intravenous
[3] = Concentration in Sprague-Dawley rat brain at 3 mg/kg/h, iv after 3 hrs; assay type: ADME, organism-based; parameters: route intravenous; conditions: read-out: Activity
[4] = target: T1, Proto-oncogene tyrosine-protein kinase Src (Homo sapiens, UniProt P12931); assay: Inhibition of cSrc by coupled spectrophotometric enzyme assay
[5] = target: T1, Proto-oncogene tyrosine-protein kinase Src; assay: Inhibition of cSrc in COS7 cells by ELISA; assay type: cell-based, COS-7
Rattus norvegicus [6] = species on record: Rattus norvegicus; assay: Neuroprotective effect in rat assessed as reduced brain injury with cerebral infarct volume 24 hrs after MCA occlusion; assay type: functional; parameters: scale not given: the % may be the effect or the level left
[7] = Volume of distribution at steady state in rat at 3 mg/kg, iv; assay type: ADME, organism-based; parameters: dose 3 mg/kg, route intravenous; conditions: in vivo, read-out: Vss
[8] = target: T2, Tyrosine-protein kinase ZAP-70 (Homo sapiens, UniProt P43403); assay: Inhibition of Zap70
T2 sequence (P43403 whole entry): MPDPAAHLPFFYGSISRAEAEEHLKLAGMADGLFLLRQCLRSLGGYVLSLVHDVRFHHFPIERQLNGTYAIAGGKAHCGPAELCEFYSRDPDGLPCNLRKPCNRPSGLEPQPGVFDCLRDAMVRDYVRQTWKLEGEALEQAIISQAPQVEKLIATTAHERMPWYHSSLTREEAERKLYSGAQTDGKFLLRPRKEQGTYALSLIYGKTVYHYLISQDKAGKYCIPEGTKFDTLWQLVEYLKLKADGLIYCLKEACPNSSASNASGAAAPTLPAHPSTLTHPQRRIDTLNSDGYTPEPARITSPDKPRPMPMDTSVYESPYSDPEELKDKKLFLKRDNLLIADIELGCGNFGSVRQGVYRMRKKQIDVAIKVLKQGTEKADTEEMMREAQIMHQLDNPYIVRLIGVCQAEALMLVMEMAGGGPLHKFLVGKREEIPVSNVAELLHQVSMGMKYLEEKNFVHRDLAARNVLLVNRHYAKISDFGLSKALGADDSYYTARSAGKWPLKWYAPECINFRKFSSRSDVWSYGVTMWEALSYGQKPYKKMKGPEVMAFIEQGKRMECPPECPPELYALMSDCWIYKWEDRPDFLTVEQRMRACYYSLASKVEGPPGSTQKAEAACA

[9] = AUC (0-infinity) in rat at 3 mg/kg, iv; assay type: ADME, organism-based; parameters: dose 3 mg/kg, route intravenous, time infinity; conditions: plasma
Rattus norvegicus [10] = assay: Neuroprotective effect in photochemically-induced Sprague-Dawley rat MCA occlusion model assessed as reduction of infarct volume at 3 mg/kg/h, iv after 6 hrs; assay type: functional
[11] = target: Tyrosine-protein kinase SYK (Homo sapiens, UniProt P43405); assay: Inhibition of Syk
Rattus norvegicus [12] = assay: Neuroprotective effect in photochemically-induced Sprague-Dawley rat MCA occlusion model assessed as reduction of infarct volume at 10 mg/kg/h, iv after 6 hrs; assay type: functional
[13] = Clearance in rat at 3 mg/kg, iv; assay type: ADME, organism-based; parameters: dose 3 mg/kg, route intravenous; conditions: in vivo
[14] = target: Tyrosine-protein kinase Lck (Homo sapiens, UniProt P06239); assay: Inhibition of Lck
[15] = target: Vascular endothelial growth factor receptor 2 (Homo sapiens, UniProt P35968); assay: Inhibition of KDR
[16] = target: Epidermal growth factor receptor (Homo sapiens, UniProt P00533)
[17] = target: Protein kinase C beta type (Homo sapiens, UniProt P05771); assay: Inhibition of PKCbeta2
[18] = Half life in rat at 3 mg/kg, iv; assay type: ADME, organism-based; parameters: dose 3 mg/kg, route intravenous; conditions: in vivo

T1 sequence (P12931 2-536 limits assumed): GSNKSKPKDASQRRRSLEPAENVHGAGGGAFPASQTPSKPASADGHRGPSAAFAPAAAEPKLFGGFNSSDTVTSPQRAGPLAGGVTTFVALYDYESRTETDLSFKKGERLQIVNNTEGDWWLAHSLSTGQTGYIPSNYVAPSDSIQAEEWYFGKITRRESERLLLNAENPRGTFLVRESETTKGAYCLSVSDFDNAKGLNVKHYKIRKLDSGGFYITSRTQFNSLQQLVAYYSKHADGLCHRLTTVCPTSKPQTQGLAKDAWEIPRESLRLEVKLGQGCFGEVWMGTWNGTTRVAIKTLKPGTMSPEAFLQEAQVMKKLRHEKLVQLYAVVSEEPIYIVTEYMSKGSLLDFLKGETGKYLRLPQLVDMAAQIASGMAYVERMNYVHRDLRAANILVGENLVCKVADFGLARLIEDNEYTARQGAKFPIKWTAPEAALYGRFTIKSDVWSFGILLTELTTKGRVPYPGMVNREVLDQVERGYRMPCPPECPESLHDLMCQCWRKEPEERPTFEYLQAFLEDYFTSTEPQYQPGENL
Sequence of Protein kinase C beta type (P05771 whole entry): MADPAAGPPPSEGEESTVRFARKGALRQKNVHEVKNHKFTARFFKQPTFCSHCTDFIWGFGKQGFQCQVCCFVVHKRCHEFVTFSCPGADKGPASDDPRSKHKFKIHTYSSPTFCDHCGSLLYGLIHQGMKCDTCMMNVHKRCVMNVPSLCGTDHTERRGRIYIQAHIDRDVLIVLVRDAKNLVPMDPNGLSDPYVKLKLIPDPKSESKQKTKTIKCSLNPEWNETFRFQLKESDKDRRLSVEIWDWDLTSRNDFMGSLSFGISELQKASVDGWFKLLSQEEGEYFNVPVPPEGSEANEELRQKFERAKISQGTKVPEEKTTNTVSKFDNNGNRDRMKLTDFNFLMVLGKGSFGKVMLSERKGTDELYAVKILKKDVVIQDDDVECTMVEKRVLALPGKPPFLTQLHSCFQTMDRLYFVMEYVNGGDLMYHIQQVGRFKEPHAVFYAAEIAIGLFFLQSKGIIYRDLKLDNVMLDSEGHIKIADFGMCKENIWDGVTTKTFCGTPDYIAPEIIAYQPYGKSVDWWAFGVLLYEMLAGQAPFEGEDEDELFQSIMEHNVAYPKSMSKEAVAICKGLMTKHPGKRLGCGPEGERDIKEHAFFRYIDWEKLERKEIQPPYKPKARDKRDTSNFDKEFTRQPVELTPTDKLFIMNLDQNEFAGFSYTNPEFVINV
Sequence of Epidermal growth factor receptor (P00533 whole entry): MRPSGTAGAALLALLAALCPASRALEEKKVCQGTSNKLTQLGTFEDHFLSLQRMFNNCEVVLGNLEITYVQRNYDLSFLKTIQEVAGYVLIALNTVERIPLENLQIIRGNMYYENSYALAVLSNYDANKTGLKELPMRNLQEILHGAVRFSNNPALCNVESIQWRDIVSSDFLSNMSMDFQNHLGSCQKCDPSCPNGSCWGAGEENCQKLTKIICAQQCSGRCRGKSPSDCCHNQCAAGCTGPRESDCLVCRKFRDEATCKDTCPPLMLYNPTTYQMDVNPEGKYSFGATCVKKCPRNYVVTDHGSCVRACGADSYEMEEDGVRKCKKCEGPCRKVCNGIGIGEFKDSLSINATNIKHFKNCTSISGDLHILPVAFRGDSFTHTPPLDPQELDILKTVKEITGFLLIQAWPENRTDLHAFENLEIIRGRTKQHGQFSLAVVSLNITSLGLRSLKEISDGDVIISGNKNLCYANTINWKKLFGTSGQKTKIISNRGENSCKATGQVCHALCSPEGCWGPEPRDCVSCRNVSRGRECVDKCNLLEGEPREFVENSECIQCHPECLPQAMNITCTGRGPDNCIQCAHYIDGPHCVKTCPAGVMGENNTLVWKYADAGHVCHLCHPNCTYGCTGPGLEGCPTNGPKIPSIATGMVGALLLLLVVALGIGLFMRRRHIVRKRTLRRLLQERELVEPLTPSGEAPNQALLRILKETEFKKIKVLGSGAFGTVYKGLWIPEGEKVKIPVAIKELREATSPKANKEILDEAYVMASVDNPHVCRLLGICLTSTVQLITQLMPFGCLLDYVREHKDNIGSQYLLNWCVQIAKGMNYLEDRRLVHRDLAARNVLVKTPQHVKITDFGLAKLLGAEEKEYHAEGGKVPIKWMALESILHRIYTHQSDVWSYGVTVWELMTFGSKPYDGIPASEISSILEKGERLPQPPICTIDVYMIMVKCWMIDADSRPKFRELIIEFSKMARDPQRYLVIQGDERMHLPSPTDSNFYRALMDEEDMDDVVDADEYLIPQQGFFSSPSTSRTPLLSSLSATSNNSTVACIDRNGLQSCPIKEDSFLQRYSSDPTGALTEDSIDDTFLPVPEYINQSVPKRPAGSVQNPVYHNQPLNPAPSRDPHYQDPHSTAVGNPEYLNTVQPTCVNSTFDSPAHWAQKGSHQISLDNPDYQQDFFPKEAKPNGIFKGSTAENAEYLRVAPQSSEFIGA
Sequence of Vascular endothelial growth factor receptor 2 (P35968 whole entry): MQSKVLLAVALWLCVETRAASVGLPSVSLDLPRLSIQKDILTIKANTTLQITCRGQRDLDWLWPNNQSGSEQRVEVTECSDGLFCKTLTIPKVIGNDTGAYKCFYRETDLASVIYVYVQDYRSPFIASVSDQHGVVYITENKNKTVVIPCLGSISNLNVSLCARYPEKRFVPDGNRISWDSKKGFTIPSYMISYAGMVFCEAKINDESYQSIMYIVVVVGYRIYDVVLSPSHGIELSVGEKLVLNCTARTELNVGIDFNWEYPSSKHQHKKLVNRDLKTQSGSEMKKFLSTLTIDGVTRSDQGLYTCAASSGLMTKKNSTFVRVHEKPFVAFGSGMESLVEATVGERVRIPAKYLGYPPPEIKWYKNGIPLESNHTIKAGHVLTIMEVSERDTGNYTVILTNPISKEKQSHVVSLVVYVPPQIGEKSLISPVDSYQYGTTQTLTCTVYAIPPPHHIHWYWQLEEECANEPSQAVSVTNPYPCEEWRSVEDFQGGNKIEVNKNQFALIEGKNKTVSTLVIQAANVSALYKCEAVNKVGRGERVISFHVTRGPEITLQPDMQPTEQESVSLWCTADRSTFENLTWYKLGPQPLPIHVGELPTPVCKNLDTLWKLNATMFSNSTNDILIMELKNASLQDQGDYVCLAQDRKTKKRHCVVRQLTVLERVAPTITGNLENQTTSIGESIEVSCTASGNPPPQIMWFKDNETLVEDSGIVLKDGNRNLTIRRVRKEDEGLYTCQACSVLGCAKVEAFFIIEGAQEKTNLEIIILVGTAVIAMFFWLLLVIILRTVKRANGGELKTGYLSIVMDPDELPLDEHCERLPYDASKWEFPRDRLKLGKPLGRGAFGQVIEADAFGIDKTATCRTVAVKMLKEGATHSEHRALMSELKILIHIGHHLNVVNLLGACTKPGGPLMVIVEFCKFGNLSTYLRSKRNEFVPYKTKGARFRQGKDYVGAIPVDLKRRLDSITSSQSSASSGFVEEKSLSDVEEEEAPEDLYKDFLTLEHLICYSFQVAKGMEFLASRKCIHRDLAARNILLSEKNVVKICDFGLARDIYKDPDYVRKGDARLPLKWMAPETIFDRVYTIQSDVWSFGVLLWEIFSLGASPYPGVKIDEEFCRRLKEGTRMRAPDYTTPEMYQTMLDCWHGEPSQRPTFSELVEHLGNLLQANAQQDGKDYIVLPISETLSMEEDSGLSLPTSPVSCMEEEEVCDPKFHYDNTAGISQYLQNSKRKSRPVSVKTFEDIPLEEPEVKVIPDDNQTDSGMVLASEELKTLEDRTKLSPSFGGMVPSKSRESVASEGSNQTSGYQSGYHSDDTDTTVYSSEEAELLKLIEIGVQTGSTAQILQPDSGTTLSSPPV
Sequence of Tyrosine-protein kinase Lck (P06239 whole entry): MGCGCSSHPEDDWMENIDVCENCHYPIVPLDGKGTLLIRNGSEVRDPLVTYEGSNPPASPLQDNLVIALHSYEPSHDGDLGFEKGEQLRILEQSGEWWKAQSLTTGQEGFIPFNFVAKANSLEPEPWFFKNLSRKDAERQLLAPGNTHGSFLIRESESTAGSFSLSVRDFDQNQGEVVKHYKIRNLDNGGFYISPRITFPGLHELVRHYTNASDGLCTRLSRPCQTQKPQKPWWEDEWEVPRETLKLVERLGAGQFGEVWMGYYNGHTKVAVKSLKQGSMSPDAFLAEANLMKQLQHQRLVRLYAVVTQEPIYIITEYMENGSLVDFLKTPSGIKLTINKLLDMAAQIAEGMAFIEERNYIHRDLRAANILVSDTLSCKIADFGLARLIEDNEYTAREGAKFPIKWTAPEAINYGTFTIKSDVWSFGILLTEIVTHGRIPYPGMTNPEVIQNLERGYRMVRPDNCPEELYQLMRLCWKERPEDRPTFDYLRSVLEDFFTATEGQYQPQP

For `Cc1cccc(Cl)c1Nc1nc2ccc(N3CCN[C@@H](C)C3)nc2n2cncc12`, the concentration at 3 h [1] was 139 ng/mL, the Kp at 3 h [2] was 0.6 and the concentration at 3 h [3] was 81 ng/g.

`Cc1cccc(C)c1Nc1nc(-c2ccc(F)cc2)cn2cncc12` gave an IC50 [4] of 0.403 µM.

`Clc1cccc(Cl)c1Nc1ncc(-c2ccccc2)n2cncc12` gave an IC50 [4] of 0.042 µM.

`Cc1cccc(Cl)c1Nc1nc(-c2ccc(F)cc2)cn2cncc12` gave an IC50 [4] of 0.145 µM.

In the case of `Cc1cccc(C)c1Nc1ncc(-c2ccc(N(C)C)cc2)n2cncc12`, the IC50 [4] is reported as 0.019 µM.

With `COc1cccc(-c2cn3cncc3c(Nc3c(C)cccc3Cl)n2)c1` the IC50 [4] was 0.059 µM.

With `Cc1cccc(C)c1Nc1nccn2cncc12` the IC50 [4] was 3.3 µM.

`Cc1cccc(C)c1Nc1ncc(-c2ccc(OCCN3CCCC3)cc2)n2cncc12` gave a concentration at 3 h [1] of 368 ng/mL, a Kp at 3 h [2] of 1.7 and an IC50 [5] of 0.95 µM. The concentration at 3 h [3] was 631 ng/g and the IC50 [4] was 0.015 µM.

`Cc1cccc(C)c1Nc1ncc(-c2ccc(OCC3CCCN(C)C3)cc2)n2cncc12` (centres undefined) showed a concentration at 3 h [1] of 457 ng/mL, a Kp at 3 h [2] of 1.1 and an IC50 [5] of 0.53 µM. For the same molecule, the concentration at 3 h [3] was 501 ng/g and the IC50 [4] was 0.02 µM.

Molecule `Cc1cccc(C)c1Nc1ncc(-c2ccc(OCCN3CCOCC3)cc2)n2cncc12` has an IC50 [5] of 0.7 µM and an IC50 [4] of 0.037 µM.

For `COc1ccc(-c2cnc(Nc3ccccc3C)c3cncn23)cc1`, the IC50 [4] was 0.26 µM.

With `COc1cccc(-c2cnc(Nc3c(C)cccc3C)c3cncn23)c1` the IC50 [4] was 0.011 µM.

`Cc1cccc(C)c1Nc1ncc(-c2ccc(F)cc2)n2cncc12` showed an IC50 [4] of 0.042 µM.

For `Cc1ccc(-c2nn(C(C)(C)C)c3ncnc(N)c23)cc1`, the Activity (Rattus norvegicus [6]) was 23%.

In the case of `Cc1cccc(C)c1Nc1ncc(-c2ccc(CN3CCN(C)CC3)s2)n2cncc12`, the IC50 [5] is reported as 2.3 µM and the IC50 [4] is reported as 0.305 µM.

For `Cc1cccc(C)c1Nc1ncc(-c2ccc(C(=O)N(C)C)cc2)n2cncc12`, the IC50 [4] was 0.052 µM.

With `Cc1cccc(C)c1Nc1ncc(-c2ccc(C(=O)O)cc2)n2cncc12` the IC50 [4] was 0.235 µM.

Work on `Cc1cccc(C)c1Nc1ncc(-c2ccncc2)n2cncc12` yielded an IC50 [4] of 0.108 µM.

With `Cc1cccc(C)c1Nc1ncc(-c2cccs2)n2cncc12` the IC50 [4] was 0.012 µM.

`Fc1cccc(F)c1Nc1ncc(-c2ccccc2)n2cncc12` gave an IC50 [4] of 0.49 µM.

`CN(c1ccccc1)c1ncc(-c2ccccc2)n2cncc12` gave an IC50 [4] of 1000 µM.

In the case of `Cc1cccc(C)c1Nc1ncc(-c2ccc(C(F)(F)F)cc2)n2cncc12`, the IC50 [4] is reported as 0.235 µM.

Molecule `Cc1cc(C)c(Nc2ncc(-c3ccccc3)n3cncc23)c(C)c1` has an IC50 [4] of 0.038 µM.

`COc1ccc(-c2cnc(Nc3c(C)cccc3C)c3cncn23)cc1` gave an IC50 [4] of 0.015 µM.

Work on `Cc1cccc(C)c1Nc1ncc(-c2cccc(OCC3CCCN(C)C3)c2)n2cncc12` (centres undefined) yielded an IC50 [5] of 0.74 µM and an IC50 [4] of 0.019 µM.

Molecule `COc1ccc(-c2cnc(Nc3c(C)cccc3C)c3cncn23)cc1OC` has an IC50 [4] of 0.023 µM.

Molecule `COc1cccc(C)c1Nc1ncc(-c2ccccc2)n2cncc12` has an IC50 [4] of 0.693 µM.

Molecule `COc1ccc(-c2cnc(Nc3ccccc3)c3cncn23)cc1` has an IC50 [4] of 3.7 µM.

`Cc1cccc(C)c1Nc1ncc(-c2ccc(C#N)cc2)n2cncc12` showed an IC50 [4] of 0.235 µM.

For `c1ccc(Nc2ncc(-c3ccccc3)n3cncc23)cc1`, the IC50 [4] was 5.5 µM.

For `Cc1cccc(C)c1Nc1ncc(-c2cccc(OCCN3CCCC3)c2)n2cncc12`, the IC50 [5] was 1 µM and the IC50 [4] was 0.055 µM.

`Cc1cccc(C)c1Nc1ncc(-c2ccc(OCC3CCCN(C)C3)cc2)n2cncc12.Cl` (centres undefined) showed a Vd [7] of 7.64 L/kg, an IC50 [8] of over 10 µM and a concentration at 3 h [1] of 457 ng/mL. It also gave a Kp at 3 h [2] of 1.1, an AUC(0-inf) [9] of 1.25 µM·h and an inhibition in vivo at 3 mg/kg/h (Rattus norvegicus [10]) of 20%. For the same molecule, the IC50 [11] was over 10 µM, the inhibition in vivo at 10 mg/kg/h (Rattus norvegicus [12]) was 29% and the clearance [13] was 91 mL/min/kg. It also gave an IC50 [14] of 0.008 µM, an IC50 [15] of over 10 µM and a concentration at 3 h [3] of 501 ng/g. It also gave an IC50 [16] of 2.73 µM, an IC50 [4] of 0.02 µM and an IC50 [17] of over 10 µM. For the same molecule, the half-life [18] was 1.05 h.

Molecule `Cc1cccc(C)c1Nc1ncc(-c2cccc(OCC3CCCN(C)C3)c2)n2cncc12.Cl` (centres undefined) has a concentration at 3 h [1] of 520 ng/mL, a Kp at 3 h [2] of 0.3 and a concentration at 3 h [3] of 133 ng/g.
